ChEMBL document CHEMBL5244281, “Tackling multidrug-resistant Staphylococcus aureus by natural products and their analogues acting as NorA efflux pump inhibitors” (Bioorg Med Chem, 2023)
Values after ≈ are worked out from the molar mass of the structure shown.

Experiments:
[1] = system: Staphylococcus aureus; test: Synergistic antibacterial activity against Staphylococcus aureus 1199B overexpressing NorA gene assessed as fractional inhibitory concentration index at 128 ug/ml in presence of norfloxacin; format: functional; conditions: dose 128 µg/ml
[2] = system: Staphylococcus aureus; test: Antibacterial activity against Staphylococcus aureus 1199B overexpressing NorA assessed as bacterial growth inhibition incubated for 18 hrs by MTT assay; format: functional
[3] = system: Staphylococcus aureus; test: Synergistic antibacterial activity against Staphylococcus aureus EMRSA-15 assessed as fractional Inhibitory concentration index at 64 ug/ml in presence of norfloxacin by broth dilution method; format: functional; conditions: dose 64 µg/ml
[4] = system: Staphylococcus aureus; test: Synergistic antibacterial activity against Staphylococcus aureus 1199B overexpressing NorA assessed as fractional Inhibitory concentration index at 64 ug/ml in presence of norfloxacin by broth dilution method; format: functional; conditions: dose 64 µg/ml
[5] = system: Staphylococcus aureus; test: Antibacterial activity against Staphylococcus aureus RN4220 assessed as bacterial growth inhibition incubated for 18 hrs by MTT assay; format: functional
[6] = system: Staphylococcus aureus; test: Synergistic antibacterial activity against Staphylococcus aureus RN4220 assessed as fractional Inhibitory concentration index at 64 ug/ml in presence of norfloxacin by broth dilution method; format: functional; conditions: dose 64 µg/ml
[7] = system: Staphylococcus aureus; test: Antibacterial activity against tetracycline-resistant Staphylococcus aureus XU212 assessed as bacterial growth inhibition incubated for 18 hrs by MTT assay; format: functional
[8] = system: Staphylococcus aureus; test: Antibacterial activity against Staphylococcus aureus ATCC25923 assessed as bacterial growth inhibition incubated for 18 hrs by MTT assay; format: functional
[9] = target: T1, Quinolone resistance protein NorA (Staphylococcus aureus) (UniProt P0A0J7); conditions: 1199B, dose 64.0 µg/ml
T1 sequence (whole entry): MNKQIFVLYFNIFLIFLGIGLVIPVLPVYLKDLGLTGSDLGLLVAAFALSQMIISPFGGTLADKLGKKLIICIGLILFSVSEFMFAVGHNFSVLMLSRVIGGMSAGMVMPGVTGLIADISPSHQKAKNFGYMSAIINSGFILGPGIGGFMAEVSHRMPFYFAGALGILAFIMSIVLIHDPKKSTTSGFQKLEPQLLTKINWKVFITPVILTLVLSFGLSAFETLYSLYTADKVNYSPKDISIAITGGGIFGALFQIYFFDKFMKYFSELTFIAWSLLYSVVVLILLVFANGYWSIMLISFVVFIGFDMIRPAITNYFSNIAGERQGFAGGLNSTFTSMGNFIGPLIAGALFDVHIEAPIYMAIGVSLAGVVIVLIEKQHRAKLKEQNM

[10] = system: Staphylococcus aureus; test: Antibacterial activity against Staphylococcus aureus EMRSA-16 assessed as bacterial growth inhibition incubated for 18 hrs by MTT assay; format: functional
[11] = system: Staphylococcus aureus; test: Antibacterial activity against Staphylococcus aureus EMRSA-15 assessed as bacterial growth inhibition incubated for 18 hrs by MTT assay; format: functional
[12] = system: Staphylococcus aureus; test: Antibacterial activity against norfloxacin resistant Staphylococcus aureus 1199B harboring NorA efflux pump gene assessed as bacterial growth inhibition incubated for 24 hrs by resazurin based microdilution test; format: functional
[13] = system: Escherichia coli; test: Antibacterial activity against Escherichia coli ATCC 25922 assessed as bacterial growth inhibition incubated for 24 hrs by resazurin based microdilution test; format: functional
[14] = system: Staphylococcus aureus; test: Antibacterial activity against Staphylococcus aureus ATCC 25923 assessed as bacterial growth inhibition incubated for 24 hrs by resazurin based microdilution test; format: functional
[15] = system: Staphylococcus aureus; test: Antibacterial activity against norfloxacin resistant Staphylococcus aureus IS-58 overexpressing TetK efflux pump gene assessed as bacterial growth inhibition incubated for 18 to 24 hrs by NCCLS protocol based microdilution method; format: functional; conditions: time 18-24 hrs
[16] = system: Staphylococcus aureus; test: Antibacterial activity against norfloxacin resistant Staphylococcus aureus 1199B overexpressing NorA efflux pump gene assessed as bacterial growth inhibition incubated for 18 to 24 hrs by NCCLS protocol based microdilution method; format: functional; conditions: time 18-24 hrs
[17] = target: T1, Quinolone resistance protein NorA (Staphylococcus aureus); test: Inhibition of NorA efflux pump in Staphylococcus aureus 1199B overexpressing NorA efflux pump assessed as reduction in EtBr MIC at 128 ug/ml using EtBr as substrate by resazurin based assay (Rvb= 32 ug/ml); conditions: dose 128.0 µg/ml
[18] = system: Staphylococcus aureus; test: Antibacterial activity against norfloxacin resistant Staphylococcus aureus RN4220 overexpressing MsrA efflux pump gene assessed as bacterial growth inhibition incubated for 18 to 24 hrs by NCCLS protocol based microdilution method; format: functional; conditions: time 18-24 hrs
[19] = target: T1, Quinolone resistance protein NorA (Staphylococcus aureus); test: Modulation of norfloxacin-induced inhibition of NorA efflux pump in Staphylococcus aureus 1199B overexpressing NorA efflux pump assessed as reduction in norfloxacin MIC at 1/4 times of MIC by resazurin based assay
[20] = system: Staphylococcus aureus; test: Antibacterial activity against norfloxacin resistant Staphylococcus aureus 1199B harboring NorA efflux pump assessed as bacterial growth inhibition incubated for 24 hrs by CLSI protocol based broth microdilution method; format: functional
[21] = system: Klebsiella pneumoniae; test: Antimicrobial activity against Klebsiella pneumoniae assessed as bacterial growth inhibition incubated for 18 to 24 hrs by broth microdilution method; format: functional; conditions: time 18-24 hrs
[22] = system: Enterococcus faecalis; test: Antimicrobial activity against Enterococcus faecalis assessed as bacterial growth inhibition incubated for 18 to 24 hrs by broth microdilution method; format: functional; conditions: time 18-24 hrs
[23] = system: Proteus vulgaris; test: Antimicrobial activity against Proteus vulgaris assessed as bacterial growth inhibition incubated for 18 to 24 hrs by broth microdilution method; format: functional; conditions: time 18-24 hrs
[24] = system: Pseudomonas aeruginosa; test: Antimicrobial activity against Pseudomonas aeruginosa assessed as bacterial growth inhibition incubated for 18 to 24 hrs by broth microdilution method; format: functional; conditions: time 18-24 hrs
[25] = system: Escherichia coli; test: Antimicrobial activity against Escherichia coli assessed as bacterial growth inhibition incubated for 18 to 24 hrs by broth microdilution method; format: functional; conditions: time 18-24 hrs
[26] = system: Bacillus subtilis; test: Antimicrobial activity against Bacillus subtilis assessed as bacterial growth inhibition incubated for 18 to 24 hrs by broth microdilution method; format: functional; conditions: time 18-24 hrs
[27] = system: Vibrio cholerae; test: Antimicrobial activity against Vibrio cholerae assessed as bacterial growth inhibition incubated for 18 to 24 hrs by broth microdilution method; format: functional; conditions: time 18-24 hrs
[28] = system: Proteus mirabilis; test: Antimicrobial activity against Proteus mirabilis assessed as bacterial growth inhibition incubated for 18 to 24 hrs by broth microdilution method; format: functional; conditions: time 18-24 hrs
[29] = system: Staphylococcus aureus; test: Antimicrobial activity against Staphylococcus aureus assessed as bacterial growth inhibition incubated for 18 to 24 hrs by broth microdilution method; format: functional; conditions: time 18-24 hrs
[30] = system: Shigella dysenteriae; test: Antimicrobial activity against Shigella dysenteriae assessed as bacterial growth inhibition incubated for 18 to 24 hrs by broth microdilution method; format: functional; conditions: time 18-24 hrs
[31] = target: T1, Quinolone resistance protein NorA (Staphylococcus aureus); conditions: 1199B, time 24.0 hrs
[32] = system: Staphylococcus aureus; test: Antibacterial activity against methicillin-resistant Staphylococcus aureus RN4220/pUL5054 overexpressing MsrA efflux pump assessed as bacterial growth inhibition incubated for 24 hrs by resazurin based broth dilution method; format: functional
[33] = system: Staphylococcus aureus; test: Potentiation of erythromycin-induced inhibition of MsrA pump in Staphylococcus aureus RN4220/pUL5054 assessed as reduction in erythromycin MIC incubated for 24 hrs by Resazurin based assay (RVB= 645.08 ug/ml)
[34] = system: Staphylococcus aureus; conditions: IS-58, time 24.0 hrs
[35] = system: Staphylococcus aureus; test: Antibacterial activity against methicillin-resistant Staphylococcus aureus 1199 assessed as bacterial growth inhibition incubated for 24 hrs by resazurin based broth dilution method; format: functional
[36] = system: Staphylococcus aureus; test: Antibacterial activity against Staphylococcus aureus IS-58 overexpressing TetK pump assessed as bacterial growth inhibition incubated for 24 hrs by resazurin based broth dilution method; format: functional
[37] = system: Staphylococcus aureus; conditions: IS-58, time 24.0 hrs; remark: listed apart in the source
[38] = system: Staphylococcus aureus; test: Antibacterial activity against methicillin-resistant Staphylococcus aureus 1199B overexpressing NorA efflux pump assessed as bacterial growth inhibition incubated for 24 hrs by resazurin based broth dilution method; format: functional
[39] = target: T1, Quinolone resistance protein NorA (Staphylococcus aureus); conditions: 1199B, time 24.0 hrs; remark: listed apart in the source
[40] = system: Staphylococcus aureus; test: Synergistic antibacterial activity against Staphylococcus aureus 1199B overexpressing NorA efflux pump assessed as fractional inhibitory concentration index in presence of norfloxacin by chequer board assay; format: functional

Structure (SMILES): COc1cc(-c2oc3cc(OC)c(OC)c(O)c3c(=O)c2OC)ccc1O [CHRYSOSPLENOL B]
- fractional inhibitory concentration index (FICI) [1]: 0.375

Structure (SMILES): COc1ccc(-c2cc(=O)c3c(O)cc(O)cc3o2)cc1O [DIOSMETIN]
- MIC [2]: 32 µg/mL (≈ 107 µM)
- fractional inhibitory concentration index (FICI) [3]: 0.09
- fractional inhibitory concentration index (FICI) [4]: 0.38
- MIC [5]: 32 µg/mL (≈ 107 µM)
- fractional inhibitory concentration index (FICI) [6]: 0.38
- MIC [7]: 32 µg/mL (≈ 107 µM)
- MIC [8]: 32 µg/mL (≈ 107 µM)
- MIC [9]: 16 µg/mL (≈ 53.3 µM)
- MIC [10]: 8 µg/mL (≈ 26.6 µM)
- MIC [11]: 32 µg/mL (≈ 107 µM)

Structure (SMILES): Oc1ccc2c(c1)O[C@H](c1ccc(O)c(O)c1)[C@@H](O)C2 [FISETINIDOL]
- MIC [12]: ≥ 1020 µg/mL
- MIC [13]: ≥ 1020 µg/mL
- MIC [14]: ≥ 1020 µg/mL

Structure (SMILES): COc1c2ccoc2c(OC)c2oc(=O)ccc12 [ISOPIMPINELLIN]
- MIC [15]: > 256 µg/mL
- MIC [16]: > 256 µg/mL
- MIC [17]: 4 µg/mL
- MIC [18]: > 256 µg/mL

Structure (SMILES): O=c1c(O)c(-c2cc(O)c(O)c(O)c2)oc2cc(O)cc(O)c12 [MYRICETIN]
- MIC [19]: 256 µg/mL
- MIC [20]: 256 µg/mL (≈ 804 µM)

Structure (SMILES): COc1cc(O)c2c(c1)O[C@H](c1ccccc1)CC2=O [PINOSTROBIN]
- MIC [21]: 18 µg/mL (≈ 66.6 µM)
- MIC [22]: 12 µg/mL (≈ 44.4 µM)
- MIC [23]: 18 µg/mL (≈ 66.6 µM)
- MIC [24]: 32 µg/mL (≈ 118 µM)
- MIC [25]: 12 µg/mL (≈ 44.4 µM)
- MIC [26]: 12 µg/mL (≈ 44.4 µM)
- MIC [27]: 24 µg/mL (≈ 88.8 µM)
- MIC [28]: 32 µg/mL (≈ 118 µM)
- MIC [29]: 64 µg/mL (≈ 237 µM)
- MIC [30]: 12 µg/mL (≈ 44.4 µM)

Structure (SMILES): O=c1c(O)c(-c2ccc(O)c(O)c2)oc2cc(O)cc(O)c12 [QUERCETIN]
- MIC [31]: 128 µg/mL (≈ 424 µM)
- MIC [32]: ≥ 1020 µg/mL
- MIC [33]: 512 µg/mL
- MIC [34]: 12.7 µg/mL (≈ 42 µM)
- MIC [35]: ≥ 1020 µg/mL
- MIC [36]: 512 µg/mL (≈ 1690 µM)
- MIC [37]: 128 µg/mL (≈ 424 µM)
- MIC [38]: ≥ 1020 µg/mL
- MIC [39]: 12.7 µg/mL (≈ 42 µM)

Structure (SMILES): C=C(C)[C@H](CC=C(C)C)Cc1c(O)cc(O)c2c1O[C@H](c1ccc(O)cc1O)CC2=O [SOPHORAFLAVANONE G]
- fractional inhibitory concentration index (FICI) [40]: 0.188
